Experimental findings from PMC8880385 (Pharmaceuticals, 2022) are described below.

The subject of data set [1] is O. volvulus pre-adult L5. As to the kind of experiment: O. volvulus pre-adult (Ov L5) motility assay. The format is cell-based, Onchocerca volvulus. Conditions: for inhibition at 1 µM: Onchocerca volvulus. The protocol: O. volvulus adult male and female worms, which can only be obtained from infected individuals, are not readily accessible for ex vivo studies. Moreover, since there is no small animal model that can maintain infections by O. volvulus, a recently developed in vitro system was used to evaluate the macrofilaricidal effects on pre-adult worms. All compounds except for 04 were tested in this O. volvulus pre-adult/L5 motility and viability assay.
(§1) Briefly, Ov L3 larvae were cultured to the pre-adult/L5 stage in vitro as described by Voronin et al., 2019 [45]. Once larvae reached the L5 stage (after at least 70 days in culture), 8–10 Ov L5 were moved to new transwell inserts in a 24-well plate containing 0.5 mL Ov L4-CMS media seeded with a 3 × 10^4/well Human Umbilical Vein Endothelial Cells (HUVEC) monolayer. Duplicate wells were treated with 1 and/or 10 µM of compound. Ov L5 were exposed to compounds for 14 days (exchanged 50% of media with fresh compound every two days) and then cultured with new media without compound, exchanging 50% of media every 2–3 days, up to day 36. Control Ov L5 were treated with 0.05% DMSO. Concentrations were chosen based on activity in the B. pahangi female motility assay. Motility was assessed visually and ranked on a 0–100% scale every 2–3 days over the course of the assay. At the end of the motility assay, Ov L5 viability was measured by 3-(4,5-dimethylthiazol-2-yl)-2,5-diphenyltetrazolium bromide (MTT) assay. Ov L5 were incubated with 0.1% MTT in PBS at 37 °C for 1 h then visually inspected for blue coloration indicating MTT reduction. Worms were considered dead if <50% of the worm was stained blue, and worms were considered alive if >50% of the worm was stained blue.

For data set [2], the system named is O. ochengi mf. As to the kind of experiment: O. ochengi microfilariae motility assay. Type of data set: cell-based, Onchocerca ochengi. The protocol: (§2) To assess the effects of the compounds on O. ochengi mf, the mf were harvested from infected cow skin and cultured (10–15 mf per well) in 100 µL media in 96-well plates with a confluent feeder layer of monkey kidney epithelial cells (MK2) as previously described. […] All compounds were also counter-screened with L. loa mf collected from infected individuals with approval from the University of Buea (IRB approval # 964-19). Mf were separated from blood cells using a Percoll gradient as previously described and set up for assays (10–15 mf per well).

In data set [3] the test system is Loa loa mf. Put plainly: Loa loa microfilariae motility counter-screen. Type of data set: cell-based. The following applies: for inhibition at 10 µM: Loa loa, 120 h, Day 5. The protocol:
as §2
(A counterscreen serves to expose hits that act by an unwanted route or on another target.)

Data set [4] concerns O. ochengi adult males. Put plainly: O. ochengi adult male motility assay. The following applies: Onchocerca ochengi, 120 h; read-out: O. ochengi Adult Males Inhibition of Motility Day 5 IC50. Type of data set: cell-based. From the text: (§3) As humans are the only hosts for O. volvulus which are unavailable for screening, drug discovery relies on the surrogate filarial parasites Brugia spp. and cattle Onchocerca spp. Prioritized compounds from the Brugia worm screens were further tested with female and male adult O. ochengi as well as O. ochengi and L. loa mf.
(§4) For these assays, O. ochengi adults were extracted from the subcutaneous nodules of infected cow skins purchased from the local slaughterhouse (Douala, Littoral Region, Cameroon) and incubated in 4 mL complete culture media comprised of RPMI-1640 (Sigma-Aldrich), 5% newborn calf serum, 200 units/mL penicillin, 200 μg/mL streptomycin and 2.5 μg/mL amphotericin B (Sigma-Aldrich) in 12-well plates overnight to validate sterility prior to the assays. Four to eight O. ochengi adult masses were treated individually the following day with a serial dilution of each compound, and controls were treated with 1% DMSO. While in culture, the male worms normally egress from the nodules into the surrounding media and thus can be monitored in parallel for motility. The O. ochengi adult masses were incubated at 37 °C with 5% CO2 for the duration of the assay. Male motility within each well was visually scored every day and over 5 days after compound addition, and female viability within the nodules was assessed by MTT after 7 days as previously described. The O. ochengi adult masses containing female worms were individually placed in wells of a 48-well plate with 0.5 mL of 0.5 mg/mL MTT in PBS and incubated at 37 °C for 30 min. Female viability was visually rated by the degree of formazan production (live worms have blue coloration) in the female worm within the treated nodule versus control worm masses. […] Prism 4.0 for Windows was used to calculate IC50s.

For data set [5], the system named is O. volvulus pre-adult L5. Put plainly: Ov L5 viability by endpoint MTT assay. The format is cell-based, Onchocerca volvulus. Conditions: 1 µM. The protocol: as §1, with “Concentrations were chosen based on activity in the B. pahangi female motility assay.” left out
On the technique in general: Tetrazolium assays rely on reduction of a dye to a coloured formazan, in cell work by metabolically active cells.

Data set [6] can be described thus: in vitro. The following applies: dog, MDCK-MDR1. The protocol:
Permeability assays were conducted using 5 µM of each test compound with digoxin as a control. […] electrical resistance was used to verify the integrity of the MDCK-MDR1 monolayer. After compound addition, plates were incubated at 37 °C with 5% CO2 for 1 h. Samples were analyzed by LC–MS/MS and net flux ratio was calculated using basal-to-apical and apical-to-basal permeability.

Data set [7] relates to O. ochengi adult females. As to the kind of experiment: O. ochengi adult female viability (MTT) assay. Type of data set: cell-based. Conditions: Onchocerca ochengi, 168 h; Day 7, MTT; read-out: O. ochengi Adult Females Inhibition of Survival Day 7 IC50.
From the text: as §3
as §4, with “min.” for “min. Female viability was visually rated by the degree of formazan production (live worms have blue coloration) in the female worm within the treated nodule versus control worm masses.”

Data set [8] has as its system Brugia pahangi adult females. Put plainly: In vitro motility assay with adult female Brugia pahangi (Worminator). The following applies: for IC50: read-out: Brugia Adult Females Inhibition of Motility Day 3 IC50.
The nature of data set [9]: Gerbil liver microsome stability assay. The format is in vitro ADME. The protocol:
Microsomal stability was tested using 1 µM of each test compound in a 96-well plate containing 0.5 mg/mL gerbil liver microsomes, 1 mM NADPH and/or UDPGA with alamethicin in a buffer of 100 mM potassium phosphate with 3 mM magnesium chloride at pH 7.4. Verapamil was used as a positive control. Reactions were incubated at 37 °C, and 100% acetonitrile with 0.1% formic acid was added at 0, 15, 30 and 60 min timepoints to stop the reaction. Samples were then separated over a Waters Atlantis T3 dC18 reverse phase HPLC column with 0.1% formic acid in water and 0.1% formic acid in acetonitrile. Samples were analyzed using an AB Sciex API 4000 LC–MS/MS.
A general note: Liver microsomes are a subcellular fraction often used to study metabolism.

Data set [10] concerns Brugia pahangi. Put plainly: Brugia pahangi/gerbil model of infection: worm and peritoneal mf counts at necropsy. Type of data set: in vivo. As to the method:
Male Mongolian gerbils 50–60 g, 5–7 weeks in age (Meriones unguiculatus, Charles River Laboratories International, Inc., Wilmington, MA, USA) were injected intraperitoneally (IP) with 200 third-larval stage B. pahangi and treated a minimum of 3 months later when larvae developed into adult worms.
Animals were given IP doses of 1 mg/kg once a day for 5 days based on in vivo studies by Jones et al., 2009 [14] and gerbil PK analyses. Compounds are light sensitive and were shielded from light during formulation. Animals were necropsied 13 weeks post-first dose, and peritoneal cavities were washed with 100 mL of PBS to collect adult worms and mf that had been released from female worms. Adult worms were separated by sex, counted, and processed for subsequent analyses. Mf from the peritoneal cavities were quantified by mixing peritoneal wash 9:1 (v/v) with 0.04% methylene blue:water and counted using an inverted microscope.
Worm burden, peritoneal mf counts, overnight mf sheds and qPCR data were analyzed using a Kruskal–Wallis test followed by Dunn’s multiple comparison. To determine significant differences in embryograms, a two-way ANOVA was conducted with a Dunnett’s multiple comparisons test, and significance levels were determined based on comparisons with vehicle treated animals. All statistical analyses were determined using Prism 8 version 8.2.0(272).

Data set [11] has as its system O. volvulus pre-adult L5. As to the kind of experiment: O. volvulus pre-adult (Ov L5) motility assay. The format is cell-based. Conditions: Onchocerca volvulus, 504 h; on Day 21; read-out: O. volvulus L5 Inhibition of Motility IC50.
The mark [12] stands for this setting: Day 36 @ 1 µM, 14 days drug then washout.
The mark [13] stands for this setting: Onchocerca ochengi, 120 h, Day 5.
[14] abbreviates: gerbil, 1 mg/kg IP once a day for 5 days, necropsy 13 weeks post-first dose, mean (SEM).
Setting [15] is: gerbil, 1 mg/kg IP once a day for 5 days, necropsy 13 weeks post-first dose, mean (SEM), 1 mg/kg.

Values joined by “and” are separate entries in the source; they are usually repeats but may differ in a detail not shown here. Equal values may be shown once. “Also recorded” adds a separate entry of the source.

`Cc1cc(/C=C/c2ccc3ccccc3[n+]2C)c(C)n1-c1ccccc1.[I-]` [Analog 01, 2-[(E)-2-(2,5-dimethyl-1-phenyl-1H-pyrrol-3-yl)ethenyl]-1-methylquinolin-1-ium iodide] came in with an inhibition at 1 µM in data set [1] (setting [12]) above 90%. In data set [2], the “O. ochengi Mf Inhibition of Motility Day 5 @ 10 µM” value is “completely inhibited”. Besides, the inhibition at 10 µM in data set [2] (setting [13]) and in data set [3] was 100% each time. Moreover, in [3], the “Loa loa Mf Inhibition of Motility Day 5 @ 10 µM” value is “completely inhibited”. Moreover, the half-inhibitory concentration (IC50) was 960 nM in data set [4]; 790 nM in [7]; 8 nM in [8] (Brugia pahangi, 72 h). Further, the “O. volvulus L5 % inhibition of viability Day 37 (MTT assay)” value in data set [5] is listed as 87%. The compound also gave a Papp A→B in data set [6] of 0.1 ×10⁻⁶ cm/s. Further, in data set [6], the Papp B→A was determined as 61.3 ×10⁻⁶ cm/s. Further, the “Brugia Adult Females Inhibition of Motility Day 3 @ 1 µM” value in [8] was 99%. In data set [8], the “Brugia Adult Females Inhibition of Motility Day 3 IC50” value is reported as “sub-micromolar range”. Moreover, in data set [9] (gerbil liver microsomes), the CLint was found to be 610.8 µL/min/mg Protein. Further, in data set [9] (pH 7.4, 1 µM compound, 0.5 mg/mL microsomes, read-out: Gerbil Liver Microsome T1/2), the half-life at 1 µM was found to be 2.3 min.

Consider `Cc1cc(/C=C/c2ccc3cc(N(C)C)ccc3[n+]2C)c(C)n1-c1ccccc1` [PVP, pyrvinium pamoate, reference compound], for which, in data set [1] (1 µM, 14 days drug then washout), the “Ov L5 fate during assay (in words)” value is on record as “dead by day 14; also recorded: did not recover”. Moreover, the inhibition at 1 µM in data set [1] (336 h, Day 14 @ 1 µM) was 100%; in [1] (setting [12]), above 90%; in data set [8] (Brugia pahangi, 72 h, read-out: Brugia Adult Females Inhibition of Motility Day 3 @ 1 µM, 1 µM, Day 3), above 70%. Moreover, in data set [2], the “O. ochengi Mf Inhibition of Motility Day 5 @ 10 µM” value is listed as “completely inhibited”. For the same compound, the inhibition at 10 µM in data set [2] (setting [13]) and in [3] was 100% throughout. Also, the half-maximal inhibitory concentration (IC50) is 300 nM in [2] (setting [13]); 110 nM in [4]; below 300 nM in data set [11]; 0.3 nM in data set [8] (Brugia pahangi, 72 h). In addition, the “Loa loa Mf Inhibition of Motility Day 5 @ 10 µM” value in data set [3] was “completely inhibited”. In addition, the “Total female worms recovered from treated animals” value in [10] (gerbil, 1 mg/kg IP) is reported as 1. Also, in [10] (gerbil, 1 mg/kg IP once a day for 5 days, 13 weeks post-first dose), the “Reduction of peritoneal mf numbers compared to control group” value is ~ 95%. Moreover, the “Reduction of adult worm numbers (worm burden) compared to control group” value in [10] (gerbil, 1 mg/kg IP once a day for 5 days, 13 weeks post-first dose, not statistically significant, 1 mg/kg) was ~ 95% and 95%. Besides, the “Female worms per animal” value in [10] (setting [14]) is on record as 0.1 (0.1). Besides, in data set [10] (setting [14]), the “Male worms per animal” value was 0.7 (0.4). Besides, in [10] (setting [15]), the “Adult worms per animal” value is 0.9 and 0.9 (0.5). The “Mf per animal (peritoneal cavity)” value in data set [10] (setting [15]) was 10.4 × 10^3 and 10,429. In data set [10] (n = 7 animals, vehicle total 148 worms (n = 8)), the “Total worms recovered from treated animals” value was determined as 6 worms. The “Brugia Adult Females Inhibition of Motility Day 3 @ 1 µM” value in data set [8] worked out at 82%. The “Brugia Adult Females Inhibition of Motility Day 3 IC50” value in [8] was “sub-micromolar range”.

As usually defined, the inhibition is the drop in the measured response relative to a control, in per cent. For orientation: IC50 means the concentration that inhibits the measured activity by half. What is called Papp A→B is the apparent permeability from the apical to the basolateral side of a cell layer. Lower therefore signals slow passage. A word on the Papp B→A: it is the apparent permeability from the basolateral to the apical side of a cell layer.
